System: HCV Huh-luc/neo-ET replicon cells
Experiment: Luciferase-Based HCV Replicon Assay (EC50 (1b))
Assay type: cell-based
Details: 72 hours exposure, luciferase activity
Description: Luciferase-Based HCV Replicon Assay Protocol (EC50 (1b))
The cell culture component of the assay was performed essentially as described by Bartenschlager et al., Hepatology 2002, 35, 694-703, wherein exponentially growing HCV Huh-luc/neo-ET replicon cells were seeded at 6×10^3 cells/well in 96 well assay plate. 24 hours later the cells were treated with various concentrations of compound in triplicate. After 72 hours exposure to the compound, the luciferase activity in the wells was determined using Bright-Glo reagent (Promega, Madison, Wis.) with a luminometer (Wallac 1420 Multilabel HTS Counter Victor 2). The background control was replicon cells treated with 100 nM BILN-2061, an inhibitor of the HCV protease. % Inhibition was determined for each compound concentration in relation to the negative (no compound) control to calculate the EC50 (1b).

**Q.** How did the EC50 turn out when `CC(C)(C)CCN1C(=O)C(C2=NS(=O)(=O)c3c(CNS(C)(=O)=O)csc3N2)=C(O)C2C3CCC(C4CC43)C21` (racemic) [Example 25, (rac-di-exo)-N-{3-[3-(3,3-Dimethyl-butyl)-6-hydroxy-4-oxo-3-aza-tetracyclo[6.3.2.0^2,7.0^9,11]tridec-5-en-5-yl]-1,1-dioxo-1,4-dihydro-1λ^6-thieno[2,3-e][1,2,4]thiadiazin-7-ylmethyl}-methanesulfonamide] was run?
**A.** ≤ 5 nM

Same assay, conditions: Hepatitis C virus, 72 hours exposure, luciferase activity

**Q.** Which EC50 does the source give for `CS(=O)(=O)NCc1csc2c1S(=O)(=O)N=C(C1=C(O)C3CCCC3N(Cc3ccc(F)cc3)C1=O)N2` (racemic) [Example 2, (rac-cis)-N-{3-[1-(4-Fluoro-benzyl)-4-hydroxy-2-oxo-2,4a,5,6,7,7a-hexahydro-1H-[1]pyrindin-3-yl]-1,1-dioxo-1,4-dihydro-1λ^6-thieno[2,3-e][1,2,4]thiadiazin-7-ylmethyl}-methanesulfonamide] here?
**A.** 5 to 20 nM

**Q.** With `CC(C)CC1CC(O)=C(C2=NS(=O)(=O)c3c(CNS(C)(=O)=O)csc3N2)C(=O)N1Cc1ccc(F)cc1` (racemic) [Example 7, rac-N-{3-[1-(4-Fluoro-benzyl)-4-hydroxy-6-isobutyl-2-oxo-1,2,5,6-tetrahydro-pyridin-3-yl]-1,1-dioxo-1,4-dihydro-1λ^6-thieno[2,3-e][1,2,4]thiadiazin-7-ylmethyl}-methanesulfonamide] as the molecule, how does the EC50 read?
**A.** 100 to 1000 nM

**Q.** `Cc1cc(CN2C(=O)C(C3=NS(=O)(=O)c4c(CNS(C)(=O)=O)csc4N3)=C(O)C3CCCCC32)ccc1F` (racemic) [Example 131, (rac-cis)-N-{3-[1-(4-Fluoro-3-methyl-benzyl)-4-hydroxy-2-oxo-1,2,4a,5,6,7,8,8a-octahydro-quinolin-3-yl]-1,1-dioxo-1,4-dihydro-1λ^6-thieno[2,3-e][1,2,4]thiadiazin-7-ylmethyl}-methanesulfonamide] was tested. Which EC50 did it give?
**A.** 100 to 1000 nM

**Q.** Which EC50 does the source give for `CS(=O)(=O)NCc1csc2c1S(=O)(=O)N=C(C1=C(O)C3CCCCC3N(Cc3ccc(F)cc3F)C1=O)N2` (racemic) [Example 118, (rac-cis)-N-{3-[1-(2,4-Difluoro-benzyl)-4-hydroxy-2-oxo-1,2,4a,5,6,7,8,8a-octahydro-quinolin-3-yl]-1,1-dioxo-1,4-dihydro-1λ^6-thieno[2,3-e][1,2,4]thiadiazin-7-ylmethyl}-methanesulfonamide] here?
**A.** 100 to 1000 nM

**Q.** `CC(C)(C)CCN1C(=O)C(C2=NS(=O)(=O)c3c(CNS(C)(=O)=O)csc3N2)=C(O)C2C3C=CC(C3)C21` (racemic) [Example 65, (rac-di-exo)-N-{3-[3-(3,3-Dimethyl-butyl)-6-hydroxy-4-oxo-3-aza-tricyclo[6.2.1.0^2,7]undeca-5,9-dien-5-yl]-1,1-dioxo-1,4-dihydro-1λ^6-thieno[2,3-e][1,2,4]thiadiazin-7-ylmethyl}-methanesulfonamide] was tested. Which EC50 did it give?
**A.** ≤ 5 nM

**Q.** For `CS(=O)(=O)NCc1csc2c1S(=O)(=O)N=C(C1=C(O)[C@@H]3CCC[C@@H]3NC1=O)N2` [Example 85, (4aR,7aS)-N-[3-(4-Hydroxy-2-oxo-2,4a,5,6,7,7a-hexahydro-1H-[1]pyrindin-3-yl)-1,1-dioxo-1,4-dihydro-1λ^6-thieno[2,3-e][1,2,4]thiadiazin-7-ylmethyl]-methanesulfonamide], which EC50 is on record?
**A.** > 1000 nM

**Q.** How did the EC50 turn out when `CC(C)(C)CCN1C(=O)C(C2=NS(=O)(=O)c3c(CNS(C)(=O)=O)csc3N2)=C(O)[C@@H]2[C@@H]3CC[C@@H](C3)[C@@H]21` [Example 59, N-{3-[(1S,2S,7R,8R)-3-(3,3-Dimethyl-butyl)-6-hydroxy-4-oxo-3-aza-tricyclo[6.2.1.0^2,7]undec-5-en-5-yl]-1,1-dioxo-1,4-dihydro-1λ^6-thieno[2,3-e][1,2,4]thiadiazin-7-ylmethyl}-methanesulfonamide] was run?
**A.** 20 to 100 nM

**Q.** Which EC50 does the source give for `CS(=O)(=O)NCc1csc2c1S(=O)(=O)N=C(C1=C(O)[C@@H]3[C@@H]4CC[C@@H](C4)[C@@H]3N(Cc3ccc(F)c(Cl)c3)C1=O)N2` [Example 95, N-{3-[(1 S,2S,7R,8R)-3-(3-Chloro-4-fluoro-benzyl)-6-hydroxy-4-oxo-3-aza-tricyclo[6.2.1.0^2,7]undec-5-en-5-yl]-1,1-dioxo-1,4-dihydro-1λ^6-thieno[2,3-e][1,2,4]thiadiazin-7-ylmethyl}-methanesulfonamide] here?
**A.** 20 to 100 nM

**Q.** Which EC50 does the source give for `CS(=O)(=O)NCc1csc2c1S(=O)(=O)N=C(C1=C(O)[C@@H]3[C@@H]4CC[C@@H](C4)[C@@H]3N(Cc3ccc(F)cc3Cl)C1=O)N2` [Example 42, N-{3-[(1S,2S,7R,8R)-3-(2-Chloro-4-fluoro-benzyl)-6-hydroxy-4-oxo-3-aza-tricyclo[6.2.1.0^2,7]undec-5-en-5-yl]-1,1-dioxo-1,4-dihydro-1λ^6-thieno[2,3-e][1,2,4]thiadiazin-7-ylmethyl}-methanesulfonamide] here?
**A.** 100 to 1000 nM

**Q.** `CS(=O)(=O)NCc1csc2c1S(=O)(=O)N=C(C1=C(O)[C@@H]3CCC[C@@H]3N(Cc3ccc(F)c(F)c3)C1=O)N2` [Example 125, (4aR,7aS)-N-{3-[1-(3,4-Difluoro-benzyl)-4-hydroxy-2-oxo-2,4a,5,6,7,7a-hexahydro-1H-[1]pyrindin-3-yl]-1,1-dioxo-1,4-dihydro-1λ^6-thieno[2,3-e][1,2,4]thiadiazin-7-ylmethyl}-methanesulfonamide] was tested. Which EC50 did it give?
**A.** 20 to 100 nM

**Q.** How did the EC50 turn out when `Cc1cc(CN2C(=O)C(C3=NS(=O)(=O)c4c(CNS(C)(=O)=O)csc4N3)=C(O)[C@@H]3C4CCC(CC4)[C@@H]32)ccc1F` [Example 52, N-{3-[(2S,7R)-3-(4-Fluoro-3-methyl-benzyl)-6-hydroxy-4-oxo-3-aza-tricyclo[6.2.2.0^2,7]dodec-5-en-5-yl]-1,1-dioxo-1,4-dihydro-1λ^6-thieno[2,3-e][1,2,4]thiadiazin-7-ylmethyl}-methanesulfonamide] was run?
**A.** ≤ 5 nM

**Q.** Which EC50 does the source give for `CC(C)(C)C1CN(Cc2ccc(F)cc2)C(=O)C(C2=NS(=O)(=O)c3c(CNS(C)(=O)=O)csc3N2)=C1O` (racemic) [Example 14, rac-N-{3-[5-tert-Butyl-1-(4-fluoro-benzyl)-4-hydroxy-2-oxo-1,2,5,6-tetrahydro-pyridin-3-yl]-1,1-dioxo-1,4-dihydro-1λ^6-thieno[2,3-e][1,2,4]thiadiazin-7-ylmethyl}-methanesulfonamide] here?
**A.** 5 to 20 nM

**Q.** For `CS(=O)(=O)NCc1csc2c1S(=O)(=O)N=C(C1=C(O)[C@@H]3CCC[C@@H]3N(Cc3ccc(F)c(F)c3F)C1=O)N2` [Example 115, (4aR,7aS)-N-{3-[4-Hydroxy-2-oxo-1-(2,3,4-trifluoro-benzyl)-2,4a,5,6,7,7a-hexahydro-1H-[1]pyrindin-3-yl]-1,1-dioxo-1,4-dihydro-1λ^6-thieno[2,3-e][1,2,4]thiadiazin-7-ylmethyl}-methanesulfonamide], which EC50 is on record?
**A.** 100 to 1000 nM

**Q.** Which EC50 does the source give for `CS(=O)(=O)NCc1csc2c1S(=O)(=O)N=C(C1=C(O)[C@@H]3C4CCC(CC4)[C@@H]3N(Cc3ccccc3)C1=O)N2` [Example 48, N-[3-((2S,7R)-3-Benzyl-6-hydroxy-4-oxo-3-aza-tricyclo[6.2.2.0^2,7]dodec-5-en-5-yl)-1,1-dioxo-1,4-dihydro-1λ^6-thieno[2,3-e][1,2,4]thiadiazin-7-ylmethyl]-methanesulfonamide] here?
**A.** ≤ 5 nM

**Q.** For `CS(=O)(=O)NCc1csc2c1S(=O)(=O)N=C(C1=C(O)[C@@H]3[C@H]4CC[C@H](C4)[C@@H]3N(CCC3CCCC3)C1=O)N2` [Example 30, N-{3-[(1R,2S,7R,8S)-3-(2-Cyclopentyl-ethyl)-6-hydroxy-4-oxo-3-aza-tricyclo[6.2.1.0^2,7]undec-5-en-5-yl]-1,1-dioxo-1,4-dihydro-1λ^6-thieno[2,3-e][1,2,4]thiadiazin-7-ylmethyl}-methanesulfonamide], which EC50 is on record?
**A.** 20 to 100 nM

**Q.** `CC(C)(C)CCN1C(=O)C(C2=NS(=O)(=O)c3c(CNS(C)(=O)=O)csc3N2)=C(O)[C@@H]2C3CCC(CC3)[C@@H]21` [Example 93, N-{3-[(2S,7R)-3-(3,3-Dimethyl-butyl)-6-hydroxy-4-oxo-3-aza-tricyclo[6.2.2.0^2,7]dodec-5-en-5-yl]-1,1-dioxo-1,4-dihydro-1λ^6-thieno[2,3-e][1,2,4]thiadiazin-7-ylmethyl}-methanesulfonamide] was tested. Which EC50 did it give?
**A.** ≤ 5 nM

**Q.** `CS(=O)(=O)NCc1csc2c1S(=O)(=O)N=C(C1=C(O)[C@@H]3[C@H]4CC[C@H](C4)[C@@H]3N(CCC3CCC3)C1=O)N2` [Example 26, N-{3-[(1R,2S,7R,8S)-3-(2-Cyclobutyl-ethyl)-6-hydroxy-4-oxo-3-aza-tricyclo[6.2.1.0^2,7]undec-5-en-5-yl]-1,1-dioxo-1,4-dihydro-1λ^6-thieno[2,3-e][1,2,4]thiadiazin-7-ylmethyl}-methanesulfonamide] was tested. Which EC50 did it give?
**A.** 20 to 100 nM

**Q.** `CC(C)CCC1(C)CN(c2ccccc2)C(=O)C(C2=NS(=O)(=O)c3c(CNS(C)(=O)=O)csc3N2)=C1O` (stereo not drawn) [Example 31, N-{3-[4-Hydroxy-5-methyl-5-(3-methyl-butyl)-2-oxo-1-phenyl-1,2,5,6-tetrahydro-pyridin-3-yl]-1,1-dioxo-1,4-dihydro-1λ^6-thieno[2,3-e][1,2,4]thiadiazin-7-ylmethyl}-methanesulfonamide] was tested. Which EC50 did it give?
**A.** > 1000 nM

**Q.** With `CC(C)CCN1C(=O)C(C2=NS(=O)(=O)c3c(CNS(C)(=O)=O)csc3N2)=C(O)[C@@H]2[C@@H]3CC[C@@H](C3)[C@@H]21` [Example 69, N-{3-[(1S,2S,7R,8R)-6-Hydroxy-3-(3-methyl-butyl)-4-oxo-3-aza-tricyclo[6.2.1.0^2,7]undec-5-en-5-yl]-1,1-dioxo-1,4-dihydro-1λ^6-thieno[2,3-e][1,2,4]thiadiazin-7-ylmethyl}-methanesulfonamide] as the molecule, how does the EC50 read?
**A.** 20 to 100 nM

**Q.** Which EC50 does the source give for `CC(C)CCC1(C)CN(C2CCCC2)C(=O)C(C2=NS(=O)(=O)c3c(CNS(C)(=O)=O)csc3N2)=C1O` (racemic) [Example 21, rac-N-{3-[1-Cyclopentyl-4-hydroxy-5-methyl-5-(3-methyl-butyl)-2-oxo-1,2,5,6-tetrahydro-pyridin-3-yl]-1,1-dioxo-1,4-dihydro-1λ^6-thieno[2,3-e][1,2,4]thiadiazin-7-ylmethyl}-methanesulfonamide] here?
**A.** 100 to 1000 nM

From US8222404B2, “[1,2,4]Thiadiazin-3-yl acetic acid compound and methods of making the acetic acid compound” (Anadys Pharmaceuticals, Inc., priority 2008, dated 2012)
